Entries after “also recorded” stand apart in the source; their conditions may differ.
Experiments:
PRC2 = settings: Konze et al., 2013; cited from earlier work
VE-cadherin = assay: Western blot analysis of VE-cadherin, CCM3 knock out cells; format: cell-based, mouse; settings: 72 hours
Procedure: (§1) Cells were seeded 6.3×10^4 cells/cm^2. The day after, PTC209 and UNC1999 were added to the confluent cells. Drugs were left for one or three days depending on the aim of the experiment. Final concentrations used for the two drugs were: 1 uM PTC209 and 5 uM UNC1999.
Confluent cells were lysed with boiling modified Laemi sample Buffer (2% SDS, 20% glycerol, and 125 mM Tris-HCl, pH 6.8). Lysates were incubated for 10 minutes at 100° C. to allow proteins denaturation. Protein concentration was estimated using the BCA Protein Assay Kit (Pierce). Equal amount of proteins was loaded on a gel, separated by SDS-PAGE and transferred to a Protran Nitrocellulose Membrane (Whatman) 0.2 um pores. The membranes were blocked for 1 hour at RT in Tris Buffered Saline (TBS: NaCl 150 mM, Tris-HCl 10 mM pH 7.4) plus 0.1% Tween-20 containing 5% BSA or milk. […] Membranes were rinsed three times with TBST for 5 minutes each and specific bindings were detected by enhanced chemiluminescence (ECL) system (Amersham Bioscience) using ChemiDoc XRS gel imaging system (Bio-Rad).
Experiment with combined PTC209 and UNC1999 treatments was repeated with the same experimental conditions described before and junction organisation was analysed through VE-cadherin staining and protein expression analysis (FIG. 19).

[1] = test system: EndMT markers (Klf4, Sca1 and Fsp1); assay: Real time (RT-PCR) analysis of EndMT markers, wild type and CCM3 knock out immortalized lung endothelial cells; format: cell-based, mouse; settings: 72 hours
Procedure: as §1
RNA extraction was performed both with (A) RNeasy kits (Promega) or (B) RNAeasy Mini Kit (QIAGEN). The latter allows also the extraction of proteins from the same sample. The RNA (500 ng) was reverse transcribed with random hexamers (High Capacity cDNA Archive kits; Applied Biosystems) in a final volume of 30 uL. Reaction were made with a thermocycler (Eppendorf) 10 min at 25° C. followed by 2 hours at 37° C. cDNA (5 ng) was amplified in triplicate in a reaction volume of 15 uL using TaqMan Gene Expression Assays (Applied Biosystems) in a ABI/Prism 7900 HT using a pre PCR step of 10 min at 95° C., followed by 40 cycles of 15 seconds at 95° C. and 60 seconds at 60° C. For each sample, the expression level was determined with the comparative threshold cycle (Ct) method, and normalized to the housekeeping genes encoding 18S, glyceraldehyde-3-phosphate dehydrogenase (GAPDH) and hypoxanthine-guanine phosphoribosyltransferase (hprt1). Ct or threshold cycle, represents the PCR cycle at which an increase in reporter fluorescence above a base-line signal can first be detect.
(§2) Wild type and CCM3 knock out cells were treated with either PTC209 or DMSO starting from the day after seeding, when cells were confluent. For this experiment cells were lysed for western blot and real-time analysis after 72 hours of treatment to check a long-term effect of PTC209.
(§3) To perform these experiments, immortalized lung endothelial cells both wild type and CCM3 knock out were treated, with the same experimental strategy used for PTC209, with UNC1999 for 72 hours and subsequently lysed for western blot and real time analysis. UNC1999 was used in its specific optimal concentration, which was different to PTC209. As control DMSO was given to the cells in a volume equal to the volume of DMSO in which UNC1999 was previously dissolved to rich the optimal concentration.
(§4) Briefly, wild type and CCM3 knock out cells were treated with either PTC209, UNC1999 or a combination of the two. PTC209 and UNC1999 were administrated at the same concentration used for the single treatment and DMSO was given as control in a volume equal to the sum of volumes of DMSO in which UNC1999 and PTC209 were previously dissolved.

[2] = test system: EndMT markers (Klf4, Sca1 and Fsp1); assay: Western blot analysis of EndMT markers, wild type and CCM3 knock out immortalized lung endothelial cells; format: cell-based, mouse; settings: 72 hours
Procedure: as §1
Confluent cells were lysed with boiling modified Laemi sample Buffer (2% SDS, 20% glycerol, and 125 mM Tris-HCl, pH 6.8). Lysates were incubated for 10 minutes at 100° C. to allow proteins denaturation. Protein concentration was estimated using the BCA Protein Assay Kit (Pierce). Equal amount of proteins was loaded on a gel, separated by SDS-PAGE and transferred to a Protran Nitrocellulose Membrane (Whatman) 0.2 um pores. The membranes were blocked for 1 hour at RT in Tris Buffered Saline (TBS: NaCl 150 mM, Tris-HCl 10 mM pH 7.4) plus 0.1% Tween-20 containing 5% BSA or milk. The membranes were incubated with primary antibodies diluted in TBST (TBS plus 0.1% Tween-20) containing 5% of either BSA or milk overnight at 4° C. Next, membranes were rinsed three times with TBST for 5 minutes each and incubated for 45 minutes at RT with HRP-linked secondary antibodies diluted in TBST containing 5% BSA/milk. Membranes were rinsed three times with TBST for 5 minutes each and specific bindings were detected by enhanced chemiluminescence (ECL) system (Amersham Bioscience) using ChemiDoc XRS gel imaging system (Bio-Rad).
as §2, §3, §4

[3] = CCM3 knock out cells, 1 uM PTC209, 5 uM UNC1999, vs DMSO
[4] = wild type cells (physiological condition), CCM3 model

CCCc1cc(C)[nH]c(=O)c1CNC(=O)c1cc(-c2ccc(N3CCN(C(C)C)CC3)nc2)cc2c1cnn2C(C)C [UNC1999, N-[(6-methyl-2-oxo-4-propyl-1H-pyridin-3-yl)methyl]-1-propan-2-yl-6-[6-(4-propan-2-ylpiperazin-1-yl)pyridin-3-yl]indazole-4-carboxamide]
Hystone-methyl transferase activity of PRC2 (PRC2): blocked
VE-cadherin protein expression level (western blot) (VE-cadherin): did not show any rescue
Klf4, Sca1 and Fsp1 transcripts (real time analysis) [1, 3]: downregulation
Klf4 transcript (real time analysis) [1, 4]: not influenced
EndMT markers (Klf4, Sca1, Fsp1) protein expression (western blot) [2, 3]: downregulation; also recorded: inhibition of the upregulation
downregulation of EndMT protein and gene expressions compared with PTC209 ([2]; CCM3 knock out cells, 5 uM UNC1999, western blot and real time): not as strong as the downregulation observed upon administration of PTC209
Klf4 protein (western blot) [2, 4]: not influenced
